Test results as given in patent US10988459B2 (priority 2015, dated 2021).

target: human RIP1 kinase domain (2-375) (Homo sapiens (Human), UniProt Q13546); test: biochemical; type: biochemical; conditions: RIP1 Ki
Summary of the method: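 50 nM purified kinase domain from baculovirus-infected insect cells, incubated 2 h with compound in 50 mM Hepes pH 7.5, 30 mM MgCl2, 1 mM DTT, 50 uM ATP, 0.002% Brij-35, 0.5% DMSO. ADP formation read by Transcreener FP at 633 nm excitation. Ki^app fitted with the Morrison tight-binding equation.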

human RIP1 kinase domain (2-375), sequence (Q13546 2-375): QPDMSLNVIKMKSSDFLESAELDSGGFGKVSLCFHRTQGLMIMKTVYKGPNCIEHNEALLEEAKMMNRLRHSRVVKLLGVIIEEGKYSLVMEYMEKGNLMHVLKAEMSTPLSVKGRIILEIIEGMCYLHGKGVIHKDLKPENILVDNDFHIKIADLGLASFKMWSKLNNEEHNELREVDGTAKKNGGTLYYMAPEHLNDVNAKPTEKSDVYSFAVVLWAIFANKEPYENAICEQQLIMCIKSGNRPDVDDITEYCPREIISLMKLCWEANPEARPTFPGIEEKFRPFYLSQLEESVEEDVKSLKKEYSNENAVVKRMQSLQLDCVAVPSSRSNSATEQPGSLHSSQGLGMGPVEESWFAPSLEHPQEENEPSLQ

| Compound | Ki |
| --- | --- |
| CN1C(=O)[C@@H](NC(=O)c2n[nH]c3ccc(C(F)(F)F)cc23)COc2ccccc21 [Example 115, (S)—N-(5-methyl-4-oxo-2,3,4,5-tetrahydrobenzo[b][1,4]oxazepin-3-yl)-5-(trifluoromethyl)-1H-indazole-3-carboxamide] | 4.9 nM |

same assay, conditions: human RIP1 kinase domain (2-375), 50 uM ATP, 2 hours incubation, Transcreener ADP assay; read-out: RIP1 Ki

| Compound | Ki |
| --- | --- |
| CN1C(=O)[C@@H](NC(=O)c2nnc3n2CC(C(F)(F)C(F)(F)F)CC3)COc2ccccc21 (stereo partly drawn) [Example 116, N—((S)-5-methyl-4-oxo-2,3,4,5-tetrahydrobenzo[b][1,4]oxazepin-3-yl)-6-(perfluoroethyl)-5,6,7,8-tetrahydro-[1,2,4]triazolo[4,3-a]pyridine-3-carboxamide] | 371 nM |
| CN1C(=O)[C@@H](NC(=O)c2n[nH]c3ncc(C(F)(F)C(F)(F)F)cc23)COc2ccccc21 [Example 117, (S)—N-(5-methyl-4-oxo-2,3,4,5-tetrahydrobenzo[b][1,4]oxazepin-3-yl)-5-(perfluoroethyl)-1H-pyrazolo[3,4-b]pyridine-3-carboxamide] | 5.6 nM |
| CN1C(=O)[C@@H](NC(=O)c2nnn3c2CC2(CCCC2)C3)COc2ccccc21 [Example 118, (S)—N-(5-methyl-4-oxo-2,3,4,5-tetrahydrobenzo[b][1,4]oxazepin-3-yl)-4′H,6′H-spiro[cyclopentane-1,5′-pyrrolo[1,2-c][1,2,3]triazole]-3′-carboxamide] | 50.4 nM |
| CN1C(=O)[C@@H](NC(=O)c2nnn3c2CC(c2ccccc2)C3)COc2ccccc21 (stereo partly drawn) [Example 119, N—((S)-5-methyl-4-oxo-2,3,4,5-tetrahydrobenzo[b][1,4]oxazepin-3-yl)-5-phenyl-5,6-dihydro-4H-pyrrolo[1,2-c][1,2,3]triazole-3-carboxamide] | 201 nM |
| CN1C(=O)[C@@H](NC(=O)c2nnn3c2CC2(CCCC2)C3)CCn2nccc21 [Example 120, (S)—N-(4-methyl-5-oxo-5,6,7,8-tetrahydro-4H-pyrazolo[1,5-a][1,3]diazepin-6-yl)-4′H,6′H-spiro[cyclopentane-1,5′-pyrrolo[1,2-c][1,2,3]triazole]-3′-carboxamide] | 2100 nM |
| CN1C(=O)[C@@H](NC(=O)c2nnn3c2CC(c2ccccc2)C3)CCn2nccc21 (stereo partly drawn) [Example 121, N—((S)-4-methyl-5-oxo-5,6,7,8-tetrahydro-4H-pyrazolo[1,5-a][1,3]diazepin-6-yl)-5-phenyl-5,6-dihydro-4H-pyrrolo[1,2-c][1,2,3]triazole-3-carboxamide] | 8700 nM |
| CC(C)n1ncc2cnc(C(=O)N[C@H]3COc4ccccc4N(C)C3=O)nc21 [Example 122, (S)-1-isopropyl-N-(5-methyl-4-oxo-2,3,4,5-tetrahydrobenzo[b][1,4]oxazepin-3-yl)-1H-pyrazolo[3,4-d]pyrimidine-6-carboxamide] | 19.5 nM |
| CN1C(=O)[C@@H](NC(=O)c2nc3n(n2)C(c2ccccc2)COC3)COc2ccccc21 (stereo partly drawn) [Example 123, N—((S)-5-methyl-4-oxo-2,3,4,5-tetrahydrobenzo[b][1,4]oxazepin-3-yl)-5-phenyl-5,6-dihydro-8H-[1,2,4]triazolo[5,1-c][1,4]oxazine-2-carboxamide] | 268 nM |
| CN1C(=O)[C@@H](NC(=O)c2nc3n(n2)C(c2ccccc2)CC3)CCn2nccc21 (stereo partly drawn) [Example 124, N—((S)-4-methyl-5-oxo-5,6,7,8-tetrahydro-4H-pyrazolo[1,5-a][1,3]diazepin-6-yl)-5-phenyl-6,7-dihydro-5H-pyrrolo[1,2-b][1,2,4]triazole-2-carboxamide] | 76.8 nM |
| CN1C(=O)[C@@H](NC(=O)c2cc3c(cn2)cnn3CC(F)(F)F)COc2ccccc21 [Example 127, N-[(3S)-5-methyl-4-oxo-2,3-dihydro-1,5-benzoxazepin-3-yl]-1-(2,2,2 trifluoroethyl)pyrazolo[4,3-c]pyridine-6-carboxamide] | 237 nM |
| CN1C(=O)[C@@H](NC(=O)c2cc3c(cn2)cnn3C2CCOC2)COc2ccccc21 (stereo partly drawn) [Example 128, N—((S)-5-methyl-4-oxo-2,3,4,5-tetrahydrobenzo[b][1,4]oxazepin-3-yl)-1-(tetrahydrofuran-3-yl)-1H-pyrazolo[4,3-c]pyridine-6-carboxamide] | 61.4 nM |
| CN1C(=O)C(NC(=O)c2nnc(Cc3ccccc3)[nH]2)CCn2nc3c(c21)CCCC3 (centres unmarked) [Example 133, 5-benzyl-N-(1-methyl-2-oxo-2,3,4,5,8,9,10,11-octahydro-1H-[1,3]diazepino[1,2-b]indazol-3-yl)-4H-1,2,4-triazole-3-carboxamide] | 127 nM |
| CN1C(=O)C(NC(=O)c2ncn(Cc3ccccc3)n2)CCn2nc(C3CC3(F)F)cc21 (centres unmarked) [Example 134, 1-benzyl-N-(2-(2,2-difluorocyclopropyl)-4-methyl-5-oxo-5,6,7,8-tetrahydr-4H-pyrazolo[1,5-a][1,3]diazepin-6-yl)-1H-1,2,4-triazole-3-carboxamide] | 73.6 nM |
| CN1C(=O)C(NC(=O)c2cn(Cc3ccccc3)nn2)CCn2nc3c(c21)CCCC3 (centres unmarked) [Example 135, 1-benzyl-N-(1-methyl-2-oxo-2,3,4,5,8,9,10,11-octahydro-1H-[1,3]diazepino[1,2-b]indazol-3-yl)-1H-1,2,3-triazole-4-carboxamide] | 390 nM |
| CN1C(=O)C(NC(=O)c2ncn(Cc3ccccc3)n2)CCn2nc3c(c21)CCCC3 (centres unmarked) [Example 136, 1-benzyl-N-(1-methyl-2-oxo-2,3,4,5,8,9,10,11-octahydro-1H-[1,3]diazepino[1,2-b]indazol-3-yl)-1H-1,2,4-triazole-3-carboxamide] | 110 nM |
| CN1C(=O)C(NC(=O)c2n[nH]c3c2C[C@@H](C(F)(F)F)CC3)CCn2nc3c(c21)CCCC3 (stereo partly drawn) [Example 137, (5S)—N-(1-methyl-2-oxo-2,3,4,5,8,9,10,11-octahydro-1H-[1,3]diazepino[1,2-b]indazol-3-yl)-5-(trifluoromethyl)-4,5,6,7-tetrahydro-1H-indazole-3-carboxamide] | 1800 nM |
| CCOc1ccc2[nH]nc(C(=O)N[C@H]3COc4ccccc4N(C)C3=O)c2n1 [Example 138, 5-ethoxy-N-[(3S)-5-methyl-4-oxo-2,3-dihydro-1,5-benzoxazepin-3-yl]-1H-pyrazolo[4,3-b]pyridine-3-carboxamide] | 3700 nM |
| CC(C)c1ccc2[nH]nc(C(=O)N[C@H]3COc4ccccc4N(C)C3=O)c2n1 [Example 139, 5-isopropyl-N-[(3S)-5-methyl-4-oxo-2,3-dihydro-1,5-benzoxazepin-3-yl]-1H-pyrazolo[4,3-b]pyridine-3-carboxamide] | 29.2 nM |
| CN1C(=O)C(NC(=O)c2ncn(Cc3ccccc3)n2)CCn2nc3c(c21)CS(=O)(=O)C3 (centres unmarked) [Example 140, 1-benzyl-N-(1-methyl-9,9-dioxido-2-oxo-1,2,3,4,5,10-hexahydro-8H-thieno[3′,4′:3,4]pyrazolo[1,5-a][1,3]diazepin-3-yl)-1H-1,2,4-triazole-3-carboxamide] | 316 nM |
| CN1C(=O)C(NC(=O)c2nnc(Cc3ccccc3)[nH]2)CCn2nc3c(c21)CS(=O)(=O)C3 (centres unmarked) [Example 141, 5-benzyl-N-(1-methyl-9,9-dioxido-2-oxo-1,2,3,4,5,10-hexahydro-8H-thieno[3′,4′:3,4]pyrazolo[1,5-a][1,3]diazepin-3-yl)-4H-1,2,4-triazole-3-carboxamide] | 544 nM |
| CN1C(=O)C(NC(=O)c2ncn(Cc3ccccc3)n2)CCn2nc3c(c21)CSC3 (centres unmarked) [Example 142, 1-benzyl-N-(1-methyl-2-oxo-1,2,3,4,5,10-hexahydro-8H-thieno[3′,4′:3,4]pyrazolo[1,5-a][1,3]diazepin-3-yl)-1H-1,2,4-triazole-3-carboxamide] | 65.8 nM |
| CN1C(=O)[C@@H](NC(=O)c2n[nH]c3ccc(Cl)nc23)COc2ccccc21 [Example 143, 5-chloro-N-[(3S)-5-methyl-4-oxo-2,3-dihydro-1,5-benzoxazepin-3-yl]-1H-pyrazolo[4,3-b]pyridine-3-carboxamide] | 51.5 nM |
| CN1C(=O)[C@@H](NC(=O)c2n[nH]c3ccc(C4CC4)nc23)COc2ccccc21 [Example 144, 5-cyclopropyl-N-[(3S)-5-methyl-4-oxo-2,3-dihydro-1,5-benzoxazepin-3-yl]-1H-pyrazolo[4,3-b]pyridine-3-carboxamide] | 248 nM |
| CN1C(=O)C(NC(=O)c2nnc(Cc3ccccc3)[nH]2)CCn2nc3c(c21)CSC3 (centres unmarked) [Example 145, 5-benzyl-N-(1-methyl-2-oxo-1,2,3,4,5,10-hexahydro-8H-thieno[3′,4′:3,4]pyrazolo[1,5-a][1,3]diazepin-3-yl)-4H-1,2,4-triazole-3-carboxamide] | 78.6 nM |
| CN1C(=O)[C@@H](NC(=O)c2cn(Cc3ccc(F)c(F)c3)cn2)CCn2nccc21 [Example 146, (S)-1-(3,4-difluorobenzyl)-N-(4-methyl-5-oxo-5,6,7,8-tetrahydro-4H-pyrazolo[1,5-a][1,3]diazepin-6-yl)-1H-imidazole-4-carboxamide] | 301 nM |
| CN1C(=O)[C@@H](NC(=O)c2ncn(Cc3ccccc3)n2)CCn2nc([C@@H]3CC3(F)F)cc21 [Example 147, 1-benzyl-N-((S)-2-((S)-2,2-difluorocyclopropyl)-4-methyl-5-oxo-5,6,7,8-tetrahydro-4H-pyrazolo[1,5-a][1,3]diazepin-6-yl)-1H-1,2,4-triazole-3-carboxamide] | 46.2 nM |
| CN1C(=O)[C@@H](NC(=O)c2ncn(Cc3ccccc3)n2)CCn2nc([C@H]3CC3(F)F)cc21 [Example 148, 1-benzyl-N-((S)-2-((R)-2,2-difluorocyclopropyl)-4-methyl-5-oxo-5,6,7,8-tetrahydro-4H-pyrazolo[1,5-a][1,3]diazepin-6-yl)-1H-1,2,4-triazole-3-carboxamide] | 40 nM |
| CN1C(=O)[C@@H](NC(=O)c2nnn3c2C[C@H](C(F)(F)F)CC3)COc2ccccc21 [Example 149, (R)-N-((S)-5-methyl-4-oxo-2,3,4,5-tetrahydrobenzo[b][1,4]oxazepin-3-yl)-5-(trifluoromethyl)-4,5,6,7-tetrahydro-[1,2,3]triazolo[1,5-a]pyridine-3-carboxamide] | 64.3 nM |
